Reference: paper PMC8347709 (International Journal of Molecular Sciences, 2021)
Several values for one entry are separate records, joined by “and”; a condition that tells them apart may be missing. Equal entries are not always repeated.

Experiments:
[1] = LogD7.4 by shake-flask method; format: physicochemical; conditions: n-octanol/phosphate-buffered saline, n-octanol/PBS pH 7.4, room temperature
Protocol: The measurement was performed twice in triplicate.

[2] = molecular target: T1, CB2R in rat spleen tissue (Rattus norvegicus, UniProt Q9QZN9); experiment: in vitro autoradiography on rat spleen cryosections; conditions: 10 µm cryosections, female SPRD rats; nonspecific binding with GW405833
T1 construct: from tissue; host or cells: rat spleen cryosections (female SPRD rat)
T1 sequence (Q9QZN9 1-360): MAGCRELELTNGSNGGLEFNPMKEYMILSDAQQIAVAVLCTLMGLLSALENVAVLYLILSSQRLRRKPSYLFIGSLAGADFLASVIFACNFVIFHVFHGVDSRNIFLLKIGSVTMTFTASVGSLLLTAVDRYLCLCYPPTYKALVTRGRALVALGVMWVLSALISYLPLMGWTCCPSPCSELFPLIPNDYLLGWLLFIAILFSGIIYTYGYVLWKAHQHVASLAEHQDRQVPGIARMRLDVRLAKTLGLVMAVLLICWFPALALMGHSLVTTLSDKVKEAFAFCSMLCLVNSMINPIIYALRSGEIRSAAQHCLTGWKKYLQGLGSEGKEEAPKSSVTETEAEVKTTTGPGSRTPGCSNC
Protocol: The in vitro autoradiographic experiments were performed according to a previously published protocol. […] Afterwards, the samples were washed, exposed to imaging plates (Fuji Photo Film, Co. Ltd., Tokyo, Japan), and eventually scanned using a HD-CR 35 scanner (raytest Isotopenmessgeraete GmbH, Straubenhardt, Germany). The scan data were visualised and processed by computer-assisted microdensitometry (Aida version 2.31, raytest Isotopenmessgeräte GmbH, Straubenhardt, Germany).
Figure S1. […] Cryosections (10 µm;
(nonspecific binding; (B) for 60 min. […]

[3] = quantification of radiometabolites in vivo; conditions: female CD-1 mice, 30 min p.i.
Protocol: Radiochemical yield, radiochemical purity and analyses of plasma and brain samples were assessed via reversed-phase HPLC (RP-HPLC) in gradient mode (0–10 min: 10% MeCN/20 mM NH4OAcaq., 10–30 min: 10%→90% MeCN/20 mM NH4OAcaq., 30–35 min: 90% MeCN/20 mM NH4OAcaq., 35–36 min: 90%→10% MeCN/20 mM NH4OAcaq. 36–45 min: 10% MeCN/20 mM NH4OAcaq.).
At 30 min p.i., the animals were anaesthetised and blood was withdrawn by retrobulbar bleeding using glass capillaries. Immediately afterwards, the animals were euthanised by cervical dislocation, and released urine was sampled. Blood plasma was obtained from the whole blood sample by centrifugation (2 min, 8000 rpm, room temperature). In addition, the brain and spleen were isolated and homogenised in 1 mL demineralised water on ice (1000 rpm, 10 strokes; glass vessel, PTFE plunger; Potter S, B. Braun Biotech International, Göttingen, Germany).
The samples were further processed for subsequent radio-chromatographic analyses. Two consecutive extractions were performed as duplicates for plasma and brain determinations. Plasma, brain and spleen samples were added to an ice-cold MeOH/H2O mixture (9:1, v/v). The samples were vortexed for 3 min, incubated on ice for 5 min and centrifuged at 10,000 rpm for 5 min. Supernatants were collected, and the precipitates were re-dissolved in 100 µL of extraction solvent, and the extraction procedure was repeated. The activities of supernatants and precipitates were measured in a γ-counter (1480 WIZARD, Fa. Perkin Elmer, Turku, Finland), and the extraction efficiencies were calculated as the ratio of radioactivity in the supernatant to the radioactivity in the original sample (supernatant + precipitate). The supernatants from both extractions were combined, concentrated at 70 °C under argon stream up to a remaining volume of 100 µL, and subsequently analysed by analytical radio-HPLC with a gradient system (see quality control section).

[4] = molecular target: T2, CB2R expression in the spleen (Rattus norvegicus, UniProt Q9QZN9); experiment: dynamic PET/MR of spleen uptake in healthy rats; format: in vivo, Wistar rats; conditions: single blocking experiment, GW405833 1.5 mg/kg i.v. 10 min prior tracer
T2 construct: from tissue; host or cells: spleen of living male Wistar Hun rats (in vivo PET)
T2 sequence (Q9QZN9 1-360): T1 sequence (Q9QZN9 1-360)
Text: For the uptake studies into the spleen three male Wistar Hun rats (Janvier Laboratories, Le Genest Saint Isle, France) weighing 268 ± 56 g were used. For the uptake studies into the brain, five female Wistar rats weighing 263 ± 13 g carrying the stereotactically injected AAV 2/7-CaMKII0.4-intron-hCB2R D80N (right striatum) and AAV2/7-CaMKII0.4-intron-3flag-eGFP (contralateral, left striatum). Animals were initially anaesthetised with 5% isoflurane and placed on a thermostatically heated animal bed where anaesthesia was maintained with 2% isoflurane in 60% oxygen/38% room air. […] List-mode PET data were binned as a series of attenuation-corrected sinogram frames (12 × 10 s, 6 × 30 s, 5 × 60 s and 10 × 300 s) and were reconstructed by ordered subset expectation maximisation (OSEM3D) with four iterations, six subsets and a voxel size of 0.4 mm^3 (Nucline v2.01, Mediso, Hungary). […] Non-parametrical analyses of achieved time-activity curves (TACs) were performed with Microsoft Excel to determine the time to peak, the TAC peak value and the area-under-the-zero-momentum curve (AUC):(1) AUC0−tx=∫0txcradioactivity × dt where c (radioactivity) is expressed as a standardised uptake value normalised to the bodyweight in g (SUV), the area-under-first-momentum curve (AUMC):(2) AUMC0−tx=∫0txt × cradioactivity × dt and the mean residence time (MRT):(3) MRT=AUMC0−tx/AUC0−tx […]

[5] = molecular target: hCB2R (Homo sapiens, UniProt P34972); experiment: homologous competition with [18F]LU14 on hCB2R-CHO cell membrane homogenates; format: binding; set-up: host or cells: CHO cells, stably transfected
Chain of hCB2R (P34972 whole entry): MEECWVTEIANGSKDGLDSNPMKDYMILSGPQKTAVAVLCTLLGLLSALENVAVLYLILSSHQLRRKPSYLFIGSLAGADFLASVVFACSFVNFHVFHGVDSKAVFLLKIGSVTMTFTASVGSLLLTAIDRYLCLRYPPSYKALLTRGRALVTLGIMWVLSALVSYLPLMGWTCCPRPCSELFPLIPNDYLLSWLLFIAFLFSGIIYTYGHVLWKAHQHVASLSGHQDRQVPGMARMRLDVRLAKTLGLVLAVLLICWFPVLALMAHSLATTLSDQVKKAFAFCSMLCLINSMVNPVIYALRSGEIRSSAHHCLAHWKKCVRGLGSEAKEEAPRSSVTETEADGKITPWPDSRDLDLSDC
Protocol: A value of 2.9 nM was experimentally determined. Next, the in vitro evaluation by autoradiography on spleen tissue was performed (Supplementary Figure S1), as the spleen is regarded as a suitable reference organ, having high densities of CB2R (rat spleen CB2R Bmax = 0.71 pmol/mg).
The inhibition curve was obtained by non-linear regression of percent specific binding (mean ±SD; one experiment run in triplicate) plotted versus the log concentration of the test compound.

Compound: C[C@H]1CC[C@@H](NC(=O)c2cc3cccnc3n(CCCC[18F])c2=O)CC1 [[^18F]LU14]
- logD [1]: 3.15 ± 0.25
- specific binding in spleen autoradiography [2]: no or low specific binding
- intact tracer in spleen (of the total activity detected) [3]: 50 ± 10%
- intact tracer in the brain [3]: 82 ± 5% and > 80% and 82%
- unchanged tracer in plasma ([3]; radio-HPLC): 17 ± 2% and 17%
- AUC0–60min in the spleen, blocking versus control [4]: comparable
- Kd [5]: 2.9 nM
